Key:
Test in all cases: In vitro antibacterial activity, agar dilution MIC
Type in all cases: cell-based
[1] = test system: Staphylococcus aureus 1775; settings: Staphylococcus aureus 1775 (organism code GG); BHI agar, 35-37 °C, 20 to 24 hours; unit assumed
Procedure, shortened: (§1)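 BHI agar dilution; 12 successive concentrations; Steers replicator inoculum 1:100, or 1:10 for slow-growing strains (e.g. Streptococcus). Plates inspected visually; MIC = lowest drug level with no growth, faint haze or sparse colonies vs compound-free control. Same-class reference antibiotic run each test.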

[2] = test system: Streptococcus bovis A-5169; settings: Streptococcus bovis A-5169 (organism code JJ); BHI agar, 35-37 °C, 20 to 24 hours; unit assumed
Procedure, shortened: as §1

[3] = test system: Nocardia Asteroides ATCC9970; settings: Nocardia Asteroides ATCC9970 (organism code VV); BHI agar, 35-37 °C, 20 to 24 hours; unit assumed
Procedure, shortened: as §1

Candida albicans CCH 442 = Candida albicans CCH 442 (organism code TT); BHI agar, 35-37 °C, 20 to 24 hours; unit assumed
Procedure, shortened: as §1

[4] = test system: Staphylococcus epidermidis 3519; settings: Staphylococcus epidermidis 3519 (organism code HH); BHI agar, 35-37 °C, 20 to 24 hours; unit assumed
Procedure, shortened: as §1

[5] = test system: Staphylococcus aureus CMX 642A; settings: Staphylococcus aureus CMX 642A (organism code DD); BHI agar, 35-37 °C, 20 to 24 hours; unit assumed
Procedure, shortened: as §1

[6] = test system: Haemophilis Influenzae DILL AMP R; settings: Haemophilis Influenzae DILL AMP R (organism code WW); BHI agar, 35-37 °C, 20 to 24 hours; unit assumed
Procedure, shortened: as §1

[7] = test system: Enterococcus faecium ATCC 8043; settings: Enterococcus faecium ATCC 8043 (organism code II); BHI agar, 35-37 °C, 20 to 24 hours; unit assumed
Procedure, shortened: as §1

[8] = test system: Streptococcus Pheumoniae ATCC6303; settings: Streptococcus Pheumoniae ATCC6303 (organism code XX); BHI agar, 35-37 °C, 20 to 24 hours; unit assumed
Procedure, shortened: as §1

[9] = test system: Streptococcus pyogenes PIU 2548; settings: Streptococcus pyogenes PIU 2548 (organism code NN); BHI agar, 35-37 °C, 20 to 24 hours; unit assumed
Procedure, shortened: as §1

[10] = test system: Streptococcus Pheumoniae GYR 1171; settings: Streptococcus Pheumoniae GYR 1171 (organism code YY); BHI agar, 35-37 °C, 20 to 24 hours; unit assumed
Procedure, shortened: as §1

[11] = test system: Staphylococcus aureus A-5278; settings: Staphylococcus aureus A-5278 (organism code CC); BHI agar, 35-37 °C, 20 to 24 hours; unit assumed
Procedure, shortened: as §1

[12] = test system: Staphylococcus aureus ATCC 6538P; settings: Staphylococcus aureus ATCC 6538P (organism code AA); BHI agar, 35-37 °C, 20 to 24 hours; unit assumed
Procedure, shortened: as §1

[13] = test system: Staphylococcus aureus A5177; settings: Staphylococcus aureus A5177 (organism code BB); BHI agar, 35-37 °C, 20 to 24 hours; unit assumed
Procedure, shortened: as §1

Escherichia coli DC-2 = Escherichia coli DC-2 (organism code SS); BHI agar, 35-37 °C, 20 to 24 hours; unit assumed
Procedure, shortened: as §1

[14] = test system: Streptococcus Pheumoniae 5649; settings: Streptococcus Pheumoniae 5649 (organism code ZZA); BHI agar, 35-37 °C, 20 to 24 hours; unit assumed
Procedure, shortened: as §1

[15] = test system: Mycobacterium smegmatis ATCC 114; settings: Mycobacterium smegmatis ATCC 114 (organism code UU); BHI agar, 35-37 °C, 20 to 24 hours; unit assumed
Procedure, shortened: as §1

[16] = test system: Streptococcus agalactiae CMX 508; settings: Streptococcus agalactiae CMX 508 (organism code KK); BHI agar, 35-37 °C, 20 to 24 hours; unit assumed
Procedure, shortened: as §1

[17] = test system: Staphylococcus aureus CMX 553; settings: Staphylococcus aureus CMX 553 (organism code FF); BHI agar, 35-37 °C, 20 to 24 hours; unit assumed
Procedure, shortened: as §1

[18] = test system: Micrococcus luteus ATCC 9341; settings: Micrococcus luteus ATCC 9341 (organism code OO); BHI agar, 35-37 °C, 20 to 24 hours; unit assumed
Procedure, shortened: as §1

Escherichia coli SS = Escherichia coli SS (organism code RR); BHI agar, 35-37 °C, 20 to 24 hours; unit assumed
Procedure, shortened: as §1

[19] = test system: Micrococcus luteus ATCC 4698; settings: Micrococcus luteus ATCC 4698 (organism code PP); BHI agar, 35-37 °C, 20 to 24 hours; unit assumed
Procedure, shortened: as §1

[20] = test system: Streptococcus pyogenes 930; settings: Streptococcus pyogenes 930 (organism code MM); BHI agar, 35-37 °C, 20 to 24 hours; unit assumed
Procedure, shortened: as §1

[21] = test system: Staphylococcus aureus NCTC10649M; settings: Staphylococcus aureus NCTC10649M (organism code EE); BHI agar, 35-37 °C, 20 to 24 hours; unit assumed
Procedure, shortened: as §1

Escherichia coli JUHL = Escherichia coli JUHL (organism code QQ); BHI agar, 35-37 °C, 20 to 24 hours; unit assumed
Procedure, shortened: as §1

[22] = test system: Streptococcus Pheumoniae 5979; settings: Streptococcus Pheumoniae 5979 (organism code ZZ); BHI agar, 35-37 °C, 20 to 24 hours; unit assumed
Procedure, shortened: as §1

[23] = test system: Streptococcus pyogenes EES61; settings: Streptococcus pyogenes EES61 (organism code LL); BHI agar, 35-37 °C, 20 to 24 hours; unit assumed
Procedure, shortened: as §1

CC[C@H]1OC(=O)[C@H](C)C(=O)[C@H](C)[C@@H](O[C@@H]2O[C@H](C)C[C@H](N(C)CC=Cc3ccccc3)[C@H]2O)[C@](C)(OCC=Cc2cnc3ccccc3c2)C[C@@H](C)C(=O)[C@H](C)[C@H]2NC(=O)O[C@@]21C [Example 17, Compound of Formula (II); R is -CH2CH=CH-(3-quinolyl), R^p is H, W is absent, R^w is H, R^1 is CH2CH=CHC6H5, R^2 is CH3]
MIC [1]: > 100 µg/mL
MIC [2]: 0.05 µg/mL
MIC [3]: 0.2 µg/mL
MIC (Candida albicans CCH 442): > 100 µg/mL
MIC [4]: 0.39 µg/mL
MIC [5]: 0.39 µg/mL
MIC [6]: 8 µg/mL
MIC [7]: 0.1 µg/mL
MIC [8]: ≤ 0.015 µg/mL
MIC [9]: 0.39 µg/mL
MIC [10]: ≤ 0.015 µg/mL
MIC [11]: > 100 µg/mL
MIC [12]: 0.39 µg/mL
MIC [13]: 0.39 µg/mL
MIC (Escherichia coli DC-2): > 100 µg/mL
MIC [14]: 0.25 µg/mL
MIC [15]: 0.39 µg/mL
MIC [16]: 0.05 µg/mL
MIC [17]: 0.39 µg/mL
MIC [18]: 0.05 µg/mL
MIC (Escherichia coli SS): 1.56 µg/mL
MIC [19]: 0.39 µg/mL
MIC [20]: 12.5 µg/mL
MIC [21]: 0.78 µg/mL
MIC (Escherichia coli JUHL): > 100 µg/mL
MIC [22]: 16 µg/mL
MIC [23]: 0.2 µg/mL

C=C(CN(C)[C@H]1C[C@@H](C)O[C@@H](O[C@@H]2[C@@H](C)C(=O)[C@@H](C)C(=O)O[C@H](CC)[C@@]3(C)OC(=O)N[C@@H]3[C@@H](C)C(=O)[C@H](C)C[C@@]2(C)OCC=Cc2cnc3ccccc3c2)[C@@H]1O)C(=O)OC [Example 18, Compound of Formula (II); R is -CH2CH=CH-(3-quinolyl), R^p is H, W is absent, R^w is H, R^1 is CH2C(=CH2)C(O)OCH3, R^2 is CH3]
MIC [1]: > 100 µg/mL
MIC [2]: 0.02 µg/mL
MIC [3]: 0.2 µg/mL
MIC (Candida albicans CCH 442): > 100 µg/mL
MIC [4]: 0.39 µg/mL
MIC [5]: 0.39 µg/mL
MIC [6]: 16 µg/mL
MIC [7]: 0.1 µg/mL
MIC [8]: ≤ 0.004 µg/mL
MIC [9]: 0.39 µg/mL
MIC [10]: ≤ 0.004 µg/mL
MIC [11]: > 100 µg/mL
MIC [12]: 0.39 µg/mL
MIC [13]: 0.39 µg/mL
MIC (Escherichia coli DC-2): > 100 µg/mL
MIC [14]: 0.5 µg/mL
MIC [15]: 6.2 µg/mL
MIC [16]: 0.02 µg/mL
MIC [17]: 0.39 µg/mL
MIC [18]: 0.02 µg/mL
MIC (Escherichia coli SS): 0.78 µg/mL
MIC [19]: 0.39 µg/mL
MIC [20]: 25 µg/mL
MIC [21]: 0.39 µg/mL
MIC (Escherichia coli JUHL): > 100 µg/mL
MIC [22]: 128 µg/mL
MIC [23]: 0.05 µg/mL

C=C(C)CN(C)[C@H]1C[C@@H](C)O[C@@H](O[C@@H]2[C@@H](C)C(=O)[C@@H](C)C(=O)O[C@H](CC)[C@@]3(C)OC(=O)N[C@@H]3[C@@H](C)C(=O)[C@H](C)C[C@@]2(C)OCC=Cc2cnc3ccccc3c2)[C@@H]1O [Example 19, Compound of Formula (II); R is -CH2CH=CH-(3-quinolyl), R^p is H, W is absent, R^w is H, R^1 is CH2C(=CH2)CH3,R^2 is CH3]
MIC [1]: > 100 µg/mL
MIC [2]: 0.02 µg/mL
MIC [3]: 0.1 µg/mL
MIC (Candida albicans CCH 442): > 100 µg/mL
MIC [4]: 0.2 µg/mL
MIC [5]: 0.2 µg/mL
MIC [6]: 4 µg/mL
MIC [7]: 0.1 µg/mL
MIC [8]: ≤ 0.004 µg/mL
MIC [9]: 0.2 µg/mL
MIC [10]: ≤ 0.004 µg/mL
MIC [11]: > 100 µg/mL
MIC [12]: 0.2 µg/mL
MIC [13]: 0.2 µg/mL
MIC (Escherichia coli DC-2): > 100 µg/mL
MIC [14]: 0.12 µg/mL
MIC [15]: 0.2 µg/mL
MIC [16]: 0.02 µg/mL
MIC [17]: 0.2 µg/mL
MIC [18]: 0.05 µg/mL
MIC (Escherichia coli SS): 0.78 µg/mL
MIC [19]: 0.1 µg/mL
MIC [20]: 6.2 µg/mL
MIC [21]: 0.39 µg/mL
MIC (Escherichia coli JUHL): > 100 µg/mL
MIC [22]: 128 µg/mL
MIC [23]: 0.01 µg/mL

CC[C@H]1OC(=O)[C@H](C)C(=O)[C@H](C)[C@@H](O[C@@H]2O[C@H](C)C[C@H](N(C)C3CC3)[C@H]2O)[C@](C)(OCC=Cc2cnc3ccccc3c2)C[C@@H](C)C(=O)[C@H](C)[C@H]2NC(=O)O[C@@]21C [Example 20, Compound of Formula (II); R is -CH2CH=CH-(3-quinolyl), R^p is H, W is absent, R^w is H, R^1 is cyclo-C3H5, R^2 is CH3]
MIC [1]: > 100 µg/mL
MIC [2]: 0.2 µg/mL
MIC [3]: 3.1 µg/mL
MIC (Candida albicans CCH 442): > 100 µg/mL
MIC [4]: 3.1 µg/mL
MIC [5]: 1.56 µg/mL
MIC [6]: 64 µg/mL
MIC [7]: 0.39 µg/mL
MIC [8]: 0.03 µg/mL
MIC [9]: 0.39 µg/mL
MIC [10]: 0.03 µg/mL
MIC [11]: > 100 µg/mL
MIC [12]: 1.56 µg/mL
MIC [13]: 3.1 µg/mL
MIC (Escherichia coli DC-2): > 100 µg/mL
MIC [14]: 0.25 µg/mL
MIC [15]: 3.1 µg/mL
MIC [16]: 0.2 µg/mL
MIC [17]: 1.56 µg/mL
MIC [18]: 0.39 µg/mL
MIC (Escherichia coli SS): 3.1 µg/mL
MIC [19]: 0.78 µg/mL
MIC [20]: > 100 µg/mL
MIC [21]: 3.1 µg/mL
MIC (Escherichia coli JUHL): > 100 µg/mL
MIC [22]: 16 µg/mL
MIC [23]: 0.1 µg/mL

— patent EP1025114B1, “3'-N-MODIFIED 6-O-SUBSTITUTED ERYTHROMYCIN KETOLIDE DERIVATIVES HAVING ANTIBACTERIAL ACTIVITY” (priority 1997, dated 1999)
